The source made the active and inactive calls.
molecular target: ALK tyrosine kinase receptor (Homo sapiens, UniProt Q9UM73); type: functional;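 further: ALK tested as one member of a kinase panel screen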
Sequence (Q9UM73 whole entry): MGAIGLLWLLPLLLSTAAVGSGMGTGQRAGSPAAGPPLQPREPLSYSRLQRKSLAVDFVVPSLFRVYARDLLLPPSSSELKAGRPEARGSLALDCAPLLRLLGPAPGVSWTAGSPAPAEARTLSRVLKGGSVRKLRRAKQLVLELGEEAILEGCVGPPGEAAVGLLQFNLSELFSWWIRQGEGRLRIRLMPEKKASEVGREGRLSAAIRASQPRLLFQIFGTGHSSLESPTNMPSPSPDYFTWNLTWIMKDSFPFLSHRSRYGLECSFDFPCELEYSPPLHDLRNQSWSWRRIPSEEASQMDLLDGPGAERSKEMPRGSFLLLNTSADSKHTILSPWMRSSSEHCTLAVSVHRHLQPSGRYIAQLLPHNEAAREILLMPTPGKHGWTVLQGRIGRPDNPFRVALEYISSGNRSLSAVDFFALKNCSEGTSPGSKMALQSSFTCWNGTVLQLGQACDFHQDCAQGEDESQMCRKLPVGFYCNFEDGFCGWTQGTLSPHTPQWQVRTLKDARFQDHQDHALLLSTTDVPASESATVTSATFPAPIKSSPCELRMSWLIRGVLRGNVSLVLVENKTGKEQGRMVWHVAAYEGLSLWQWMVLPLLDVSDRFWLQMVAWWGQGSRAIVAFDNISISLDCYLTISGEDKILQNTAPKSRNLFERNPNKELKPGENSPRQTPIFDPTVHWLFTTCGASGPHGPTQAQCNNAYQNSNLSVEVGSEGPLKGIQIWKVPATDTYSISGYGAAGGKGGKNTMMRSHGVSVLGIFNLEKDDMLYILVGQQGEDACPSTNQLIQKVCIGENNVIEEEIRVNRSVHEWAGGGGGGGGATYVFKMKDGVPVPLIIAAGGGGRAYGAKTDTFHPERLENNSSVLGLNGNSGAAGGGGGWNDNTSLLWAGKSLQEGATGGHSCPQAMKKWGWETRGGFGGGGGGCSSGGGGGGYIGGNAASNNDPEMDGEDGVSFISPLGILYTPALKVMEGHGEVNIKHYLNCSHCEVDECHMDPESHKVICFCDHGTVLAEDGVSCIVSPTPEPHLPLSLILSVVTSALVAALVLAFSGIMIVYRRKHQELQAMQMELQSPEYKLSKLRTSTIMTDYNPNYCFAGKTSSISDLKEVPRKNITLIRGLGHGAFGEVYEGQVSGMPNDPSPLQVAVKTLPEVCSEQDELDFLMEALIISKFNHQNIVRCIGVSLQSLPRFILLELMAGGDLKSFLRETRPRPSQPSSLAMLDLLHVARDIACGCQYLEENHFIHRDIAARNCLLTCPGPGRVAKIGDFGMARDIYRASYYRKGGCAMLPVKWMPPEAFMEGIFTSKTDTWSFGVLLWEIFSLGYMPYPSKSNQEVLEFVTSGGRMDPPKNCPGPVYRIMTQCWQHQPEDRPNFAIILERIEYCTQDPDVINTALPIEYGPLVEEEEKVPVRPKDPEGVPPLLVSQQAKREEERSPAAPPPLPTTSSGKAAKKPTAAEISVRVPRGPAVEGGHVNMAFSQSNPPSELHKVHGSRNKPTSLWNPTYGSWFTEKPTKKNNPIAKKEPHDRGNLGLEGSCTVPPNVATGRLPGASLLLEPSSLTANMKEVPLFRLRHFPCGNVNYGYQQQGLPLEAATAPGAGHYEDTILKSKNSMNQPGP

Ki | SMILES
> 6.31 µM (inactive) | O=C(Nc1n[nH]c2ccc(-c3cn(Cc4ccccc4)nn3)cc12)c1cc(F)ccc1F
> 6.31 µM (inactive) | CS(=O)(=O)Nc1ccc(Nc2ccc3[nH]nc(N)c3c2)cc1
> 3.16 µM (inactive) | CS(=O)(=O)N(Cc1ccc2[nH]c(=O)c3cccn3c2c1)C1CC1

molecular target: T1, Serine/threonine-protein kinase D3 (Homo sapiens, UniProt O94806); type: functional;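 further: determined within a kinase panel screen, with PRKCN as the panel member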
T1 sequence (O94806 whole entry): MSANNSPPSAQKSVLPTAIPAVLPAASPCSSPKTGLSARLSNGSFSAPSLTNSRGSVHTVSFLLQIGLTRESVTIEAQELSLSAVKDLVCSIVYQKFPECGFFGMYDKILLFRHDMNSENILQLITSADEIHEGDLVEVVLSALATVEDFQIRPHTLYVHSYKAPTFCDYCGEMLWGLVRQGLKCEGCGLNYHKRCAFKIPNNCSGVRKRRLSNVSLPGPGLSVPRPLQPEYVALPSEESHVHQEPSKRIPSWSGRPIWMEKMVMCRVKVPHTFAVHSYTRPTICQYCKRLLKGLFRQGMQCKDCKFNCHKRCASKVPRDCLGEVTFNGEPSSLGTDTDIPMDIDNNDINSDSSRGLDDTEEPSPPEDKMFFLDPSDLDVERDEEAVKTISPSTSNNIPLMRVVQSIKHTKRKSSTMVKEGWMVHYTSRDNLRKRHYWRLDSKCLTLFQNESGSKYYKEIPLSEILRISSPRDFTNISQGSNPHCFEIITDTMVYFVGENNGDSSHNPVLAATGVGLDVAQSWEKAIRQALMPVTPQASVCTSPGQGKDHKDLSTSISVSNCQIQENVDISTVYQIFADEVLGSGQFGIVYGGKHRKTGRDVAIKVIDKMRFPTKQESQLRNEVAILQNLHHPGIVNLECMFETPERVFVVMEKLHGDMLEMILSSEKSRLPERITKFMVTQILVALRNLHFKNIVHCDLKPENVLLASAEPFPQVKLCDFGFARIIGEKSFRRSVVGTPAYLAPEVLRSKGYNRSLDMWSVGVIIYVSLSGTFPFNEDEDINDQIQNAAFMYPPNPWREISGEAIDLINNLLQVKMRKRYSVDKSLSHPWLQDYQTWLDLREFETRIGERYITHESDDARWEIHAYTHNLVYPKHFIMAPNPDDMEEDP

Ki | SMILES
> 3.98 µM (inactive) | O=C(Nc1n[nH]c2ccc(-c3cn(Cc4ccccc4)nn3)cc12)c1cc(F)ccc1F
3.16 µM (active) | CS(=O)(=O)Nc1ccc(Nc2ccc3[nH]nc(N)c3c2)cc1
> 2 µM (inactive) | CS(=O)(=O)N(Cc1ccc2[nH]c(=O)c3cccn3c2c1)C1CC1

molecular target: Death-associated protein kinase 3 (Homo sapiens, UniProt O43293); type: functional;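 further: measured as one member of a kinome-wide profiling panel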

SMILES | Ki
O=C(Nc1n[nH]c2ccc(-c3cn(Cc4ccccc4)nn3)cc12)c1cc(F)ccc1F | 0.0501 µM (active)
CS(=O)(=O)Nc1ccc(Nc2ccc3[nH]nc(N)c3c2)cc1 | > 5.01 µM (inactive)
CS(=O)(=O)N(Cc1ccc2[nH]c(=O)c3cccn3c2c1)C1CC1 | > 3.16 µM (inactive)

molecular target: Tyrosine-protein kinase BTK (Homo sapiens, UniProt Q06187); type: functional
Sequence (Q06187 whole entry): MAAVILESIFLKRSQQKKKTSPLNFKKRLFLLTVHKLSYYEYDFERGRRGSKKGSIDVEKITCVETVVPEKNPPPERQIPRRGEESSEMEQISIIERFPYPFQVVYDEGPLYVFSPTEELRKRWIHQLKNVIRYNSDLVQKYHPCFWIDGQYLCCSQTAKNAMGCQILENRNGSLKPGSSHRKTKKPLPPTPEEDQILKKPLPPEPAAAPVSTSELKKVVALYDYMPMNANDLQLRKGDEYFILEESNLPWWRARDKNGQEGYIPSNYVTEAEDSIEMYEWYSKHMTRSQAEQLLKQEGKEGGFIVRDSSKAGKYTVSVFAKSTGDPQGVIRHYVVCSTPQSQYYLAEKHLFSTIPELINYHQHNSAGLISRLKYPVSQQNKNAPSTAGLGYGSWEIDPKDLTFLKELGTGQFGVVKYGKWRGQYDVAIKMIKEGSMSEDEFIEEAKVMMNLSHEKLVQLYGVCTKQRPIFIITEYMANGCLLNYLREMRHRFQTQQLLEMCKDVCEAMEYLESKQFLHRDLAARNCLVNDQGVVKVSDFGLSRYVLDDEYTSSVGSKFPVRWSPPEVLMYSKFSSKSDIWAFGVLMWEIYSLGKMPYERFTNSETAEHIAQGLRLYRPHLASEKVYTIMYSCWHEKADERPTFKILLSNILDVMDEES

Ki | SMILES
> 6.31 µM (inactive) | O=C(Nc1n[nH]c2ccc(-c3cn(Cc4ccccc4)nn3)cc12)c1cc(F)ccc1F
> 6.31 µM (inactive) | CS(=O)(=O)Nc1ccc(Nc2ccc3[nH]nc(N)c3c2)cc1
> 3.16 µM (inactive) | CS(=O)(=O)N(Cc1ccc2[nH]c(=O)c3cccn3c2c1)C1CC1

molecular target: Serine/threonine-protein kinase PAK 4 (Homo sapiens, UniProt O96013); type: functional;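 further: value obtained within a kinome profiling panel in which PAK4 was one of the panel members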
Sequence (O96013 whole entry): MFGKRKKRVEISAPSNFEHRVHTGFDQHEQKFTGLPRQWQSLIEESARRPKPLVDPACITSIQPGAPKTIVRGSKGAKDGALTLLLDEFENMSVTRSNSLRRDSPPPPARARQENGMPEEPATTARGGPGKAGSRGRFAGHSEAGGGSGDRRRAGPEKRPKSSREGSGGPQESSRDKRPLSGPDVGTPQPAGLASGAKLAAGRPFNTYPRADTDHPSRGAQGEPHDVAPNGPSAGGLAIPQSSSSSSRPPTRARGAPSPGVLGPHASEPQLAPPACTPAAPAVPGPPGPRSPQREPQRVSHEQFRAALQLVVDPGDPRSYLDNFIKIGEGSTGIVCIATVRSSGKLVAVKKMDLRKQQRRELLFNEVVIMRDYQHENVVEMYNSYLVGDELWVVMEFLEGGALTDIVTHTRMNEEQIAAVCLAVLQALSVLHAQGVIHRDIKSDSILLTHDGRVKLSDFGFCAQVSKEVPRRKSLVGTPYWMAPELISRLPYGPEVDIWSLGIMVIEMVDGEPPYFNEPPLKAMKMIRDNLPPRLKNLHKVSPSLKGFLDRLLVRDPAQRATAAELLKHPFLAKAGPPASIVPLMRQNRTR

Ki | SMILES
3.16 µM (active) | O=C(Nc1n[nH]c2ccc(-c3cn(Cc4ccccc4)nn3)cc12)c1cc(F)ccc1F
> 5.01 µM (inactive) | CS(=O)(=O)Nc1ccc(Nc2ccc3[nH]nc(N)c3c2)cc1
> 3.16 µM (inactive) | CS(=O)(=O)N(Cc1ccc2[nH]c(=O)c3cccn3c2c1)C1CC1

molecular target: T2, Tyrosine-protein kinase JAK3 (Homo sapiens, UniProt P52333); type: functional
T2 sequence (P52333 whole entry): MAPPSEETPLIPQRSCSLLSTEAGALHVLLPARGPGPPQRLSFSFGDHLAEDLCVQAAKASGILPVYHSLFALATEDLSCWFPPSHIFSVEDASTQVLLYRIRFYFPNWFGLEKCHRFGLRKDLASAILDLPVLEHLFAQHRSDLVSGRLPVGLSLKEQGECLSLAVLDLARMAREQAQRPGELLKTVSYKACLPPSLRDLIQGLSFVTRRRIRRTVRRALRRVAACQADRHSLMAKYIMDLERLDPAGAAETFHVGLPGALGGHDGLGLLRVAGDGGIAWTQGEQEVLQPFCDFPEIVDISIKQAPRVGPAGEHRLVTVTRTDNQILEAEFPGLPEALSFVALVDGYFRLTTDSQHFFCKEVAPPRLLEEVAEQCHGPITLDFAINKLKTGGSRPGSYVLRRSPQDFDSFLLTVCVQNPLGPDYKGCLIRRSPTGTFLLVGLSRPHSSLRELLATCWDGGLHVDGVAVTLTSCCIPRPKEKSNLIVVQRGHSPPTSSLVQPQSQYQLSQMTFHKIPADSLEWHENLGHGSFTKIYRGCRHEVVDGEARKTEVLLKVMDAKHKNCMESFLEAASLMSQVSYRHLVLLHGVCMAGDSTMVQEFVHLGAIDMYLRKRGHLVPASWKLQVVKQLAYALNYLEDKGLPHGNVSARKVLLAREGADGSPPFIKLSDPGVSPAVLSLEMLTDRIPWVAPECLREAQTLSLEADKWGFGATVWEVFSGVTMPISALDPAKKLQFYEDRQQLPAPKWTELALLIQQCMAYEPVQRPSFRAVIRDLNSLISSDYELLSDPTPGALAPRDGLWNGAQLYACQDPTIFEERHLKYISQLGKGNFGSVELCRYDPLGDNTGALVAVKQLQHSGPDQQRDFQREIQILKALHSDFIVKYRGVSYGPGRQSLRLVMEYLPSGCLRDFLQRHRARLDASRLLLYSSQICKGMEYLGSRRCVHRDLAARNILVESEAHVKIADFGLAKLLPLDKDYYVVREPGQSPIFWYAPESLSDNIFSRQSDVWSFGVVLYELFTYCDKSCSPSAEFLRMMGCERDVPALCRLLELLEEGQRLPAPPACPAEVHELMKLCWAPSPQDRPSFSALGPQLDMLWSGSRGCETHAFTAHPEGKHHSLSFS

Ki | SMILES
> 5.01 µM (inactive) | O=C(Nc1n[nH]c2ccc(-c3cn(Cc4ccccc4)nn3)cc12)c1cc(F)ccc1F
> 5.01 µM (inactive) | CS(=O)(=O)Nc1ccc(Nc2ccc3[nH]nc(N)c3c2)cc1
> 2.51 µM (inactive) | CS(=O)(=O)N(Cc1ccc2[nH]c(=O)c3cccn3c2c1)C1CC1

molecular target: LIM domain kinase 1 (Homo sapiens, UniProt P53667); test: Navigating the Kinome. Panel member name: LIMK1; type: functional
Sequence (P53667 whole entry, the tested form may be a part): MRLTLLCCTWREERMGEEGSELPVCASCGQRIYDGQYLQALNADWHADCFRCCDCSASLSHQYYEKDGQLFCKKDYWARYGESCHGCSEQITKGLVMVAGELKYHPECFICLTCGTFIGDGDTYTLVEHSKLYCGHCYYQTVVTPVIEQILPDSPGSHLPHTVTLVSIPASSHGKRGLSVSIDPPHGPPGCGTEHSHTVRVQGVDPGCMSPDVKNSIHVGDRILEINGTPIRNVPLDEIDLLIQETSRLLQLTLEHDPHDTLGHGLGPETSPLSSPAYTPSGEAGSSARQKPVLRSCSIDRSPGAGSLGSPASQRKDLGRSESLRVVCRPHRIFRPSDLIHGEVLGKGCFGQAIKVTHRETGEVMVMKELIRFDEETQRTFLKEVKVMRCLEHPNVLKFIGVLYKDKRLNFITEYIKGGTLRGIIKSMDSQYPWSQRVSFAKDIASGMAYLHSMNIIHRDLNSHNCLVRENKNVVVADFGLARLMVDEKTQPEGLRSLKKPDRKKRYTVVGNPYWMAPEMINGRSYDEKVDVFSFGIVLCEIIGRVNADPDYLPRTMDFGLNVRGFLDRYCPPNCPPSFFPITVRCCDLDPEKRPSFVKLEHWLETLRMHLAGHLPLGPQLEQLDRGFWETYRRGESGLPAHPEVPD

Ki | SMILES
> 3.16 µM (inactive) | O=C(Nc1n[nH]c2ccc(-c3cn(Cc4ccccc4)nn3)cc12)c1cc(F)ccc1F
0.501 µM (active) | CS(=O)(=O)Nc1ccc(Nc2ccc3[nH]nc(N)c3c2)cc1
> 3.16 µM (inactive) | CS(=O)(=O)N(Cc1ccc2[nH]c(=O)c3cccn3c2c1)C1CC1

molecular target: T3, Serine/threonine-protein kinase Chk1 (Homo sapiens, UniProt O14757); type: functional;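 further: measured as one member of a kinome-wide kinase profiling panel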
T3 sequence (O14757 whole entry): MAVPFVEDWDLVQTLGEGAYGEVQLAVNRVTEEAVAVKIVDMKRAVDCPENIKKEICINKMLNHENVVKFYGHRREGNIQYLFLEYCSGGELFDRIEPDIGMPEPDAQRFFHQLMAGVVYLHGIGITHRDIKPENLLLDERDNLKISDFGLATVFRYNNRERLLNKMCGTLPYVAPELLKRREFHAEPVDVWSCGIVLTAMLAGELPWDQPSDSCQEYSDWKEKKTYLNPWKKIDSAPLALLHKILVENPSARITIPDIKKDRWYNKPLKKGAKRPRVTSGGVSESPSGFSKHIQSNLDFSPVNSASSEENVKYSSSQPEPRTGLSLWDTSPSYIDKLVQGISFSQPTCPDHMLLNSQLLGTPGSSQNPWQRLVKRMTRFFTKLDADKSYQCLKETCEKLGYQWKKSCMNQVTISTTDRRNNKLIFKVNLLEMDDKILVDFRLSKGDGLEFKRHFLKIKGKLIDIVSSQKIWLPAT

Ki | SMILES
> 3.16 µM (inactive) | O=C(Nc1n[nH]c2ccc(-c3cn(Cc4ccccc4)nn3)cc12)c1cc(F)ccc1F
2 µM (active) | CS(=O)(=O)Nc1ccc(Nc2ccc3[nH]nc(N)c3c2)cc1
> 6.31 µM (inactive) | CS(=O)(=O)N(Cc1ccc2[nH]c(=O)c3cccn3c2c1)C1CC1

molecular target: Dual specificity tyrosine-phosphorylation-regulated kinase 1B (Homo sapiens, UniProt Q9Y463); test: Navigating the Kinome. Panel member name: DYRK1B; type: functional
Sequence (Q9Y463 whole entry): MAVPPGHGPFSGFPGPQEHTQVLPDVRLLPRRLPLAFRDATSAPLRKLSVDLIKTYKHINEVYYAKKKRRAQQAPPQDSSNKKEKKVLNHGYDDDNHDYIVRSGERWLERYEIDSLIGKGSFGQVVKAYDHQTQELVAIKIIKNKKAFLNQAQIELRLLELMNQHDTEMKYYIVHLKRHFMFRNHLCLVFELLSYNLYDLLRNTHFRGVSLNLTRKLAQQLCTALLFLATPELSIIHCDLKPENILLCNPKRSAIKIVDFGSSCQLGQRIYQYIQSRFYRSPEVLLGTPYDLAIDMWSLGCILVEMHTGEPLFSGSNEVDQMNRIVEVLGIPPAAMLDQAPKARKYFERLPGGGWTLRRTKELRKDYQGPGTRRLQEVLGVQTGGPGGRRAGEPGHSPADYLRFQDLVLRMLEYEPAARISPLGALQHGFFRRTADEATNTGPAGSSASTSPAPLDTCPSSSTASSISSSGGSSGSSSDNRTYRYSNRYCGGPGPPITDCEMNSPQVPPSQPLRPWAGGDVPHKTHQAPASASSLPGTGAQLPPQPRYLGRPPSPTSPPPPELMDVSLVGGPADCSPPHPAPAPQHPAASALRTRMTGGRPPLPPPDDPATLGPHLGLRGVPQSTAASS

Ki | SMILES
0.00501 µM (active) | O=C(Nc1n[nH]c2ccc(-c3cn(Cc4ccccc4)nn3)cc12)c1cc(F)ccc1F
1.26 µM (active) | CS(=O)(=O)Nc1ccc(Nc2ccc3[nH]nc(N)c3c2)cc1
> 2.51 µM (inactive) | CS(=O)(=O)N(Cc1ccc2[nH]c(=O)c3cccn3c2c1)C1CC1

molecular target: Tyrosine-protein kinase Fyn (Homo sapiens, UniProt P06241); type: functional
Sequence (P06241 whole entry): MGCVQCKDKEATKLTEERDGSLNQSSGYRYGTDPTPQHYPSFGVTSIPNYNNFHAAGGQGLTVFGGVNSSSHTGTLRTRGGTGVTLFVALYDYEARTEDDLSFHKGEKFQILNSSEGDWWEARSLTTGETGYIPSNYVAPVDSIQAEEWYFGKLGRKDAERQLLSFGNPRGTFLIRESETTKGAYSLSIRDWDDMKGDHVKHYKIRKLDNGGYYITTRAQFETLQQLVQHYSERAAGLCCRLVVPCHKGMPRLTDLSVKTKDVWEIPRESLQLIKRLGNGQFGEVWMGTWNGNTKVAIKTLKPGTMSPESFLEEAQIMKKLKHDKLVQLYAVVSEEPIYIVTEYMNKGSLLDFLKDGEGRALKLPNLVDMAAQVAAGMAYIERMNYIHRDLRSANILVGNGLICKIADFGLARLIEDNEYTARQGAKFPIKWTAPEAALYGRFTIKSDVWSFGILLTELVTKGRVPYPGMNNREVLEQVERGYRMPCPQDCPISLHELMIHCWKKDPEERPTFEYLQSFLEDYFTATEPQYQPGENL

Ki | SMILES
> 6.31 µM (inactive) | O=C(Nc1n[nH]c2ccc(-c3cn(Cc4ccccc4)nn3)cc12)c1cc(F)ccc1F
> 6.31 µM (inactive) | CS(=O)(=O)Nc1ccc(Nc2ccc3[nH]nc(N)c3c2)cc1
> 3.16 µM (inactive) | CS(=O)(=O)N(Cc1ccc2[nH]c(=O)c3cccn3c2c1)C1CC1
